Measured values from EP4725957A1, “GROUP OF CYCLIC ALKALINE LIPOPEPTIDE COMPOUNDS, AND PREPARATION METHOD THEREFOR AND USE THEREOF” (Institute of Medicinal Biotechnology, Chinese Academy of …, priority 2023, dated 2024).
Values after ≈ are worked out from the molar mass of the structure shown. Bridge positions count the residues as written; N and C are the ends. Square brackets hold non-standard residues; d marks the D form. Peptide text beside a SMILES is read from it. * marks the point of attachment. Heptanoyl(6-Me) = CC(C)CCCCC(=O)*; Dab = NCC[C@H](N)C(=O)O; Dap = NC[C@H](N)C(=O)O

How the values were obtained:
Type in all cases: cell-based
[1] = test system: Pseudomonas aeruginosa ATCC 27853; settings: Pseudomonas aeruginosa ATCC27853
Summary of the method: (§1)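 Broth microdilution MIC per CLSI in MH broth, compounds 2-fold diluted to final 64–0.03 mg/L. Inoculum (2-4) × 10^5 CFU/mL final, from 0.5 McFarland suspensions of 18-24 h colonies. Plates sealed and incubated 35-37°C for 16-20 h.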

[2] = test system: Klebsiella pneumoniae KPN+19-15; settings: Klebsiella pneumoniae KPN 19-15
Summary of the method: as §1

[3] = test system: Escherichia coli ATCC BAA-2340 (KPC); settings: Escherichia coli ATCC BAA-2340 (KPC)
Summary of the method: as §1

[4] = test system: Acinetobacter baumannii NCTC 13304 (OXA-27); settings: Acinetobacter baumannii NCTC 13304 (OXA-27)
Summary of the method: as §1

[5] = test system: Klebsiella pneumoniae ATCC BAA-1705 (KPC); settings: Klebsiella pneumoniae ATCC BAA-1705 (KPC)
Summary of the method: as §1

[6] = test system: Escherichia coli ATCC BAA-2523; settings: Escherichia coli ATCC BAA-2523
Summary of the method: as §1

[7] = test system: Pseudomonas aeruginosa PAE19-3; settings: Pseudomonas aeruginosa PAE19-3
Summary of the method: as §1

[8] = test system: Acinetobacter baumannii ABA19-1; settings: Acinetobacter baumannii ABA19-1
Summary of the method: as §1

CC(C)CCCCC(=O)N[C@@H](CCN)C(=O)N[C@H](C(=O)N[C@@H](CN)C(=O)N[C@H]1CCNC(=O)[C@H]([C@@H](C)O)NC(=O)[C@H](CCN)NC(=O)[C@H](CCN)NC(=O)[C@H]([C@@H](C)O)NC(=O)[C@@H](Cc2ccccc2)NC(=O)[C@H](CCN)NC1=O)[C@@H](C)O [Compound 7, 6-methylheptanoyl-Dab-Thr-Dap-ring(4-10)[Dab-Dab-D-Phe-Thr-Dab-Dab-Thr]] ({Heptanoyl(6-Me)}-[Dab]T[Dap][Dab][Dab][dF]T[Dab][Dab]T; lactam 4-C)
MIC [1]: ≤0.03 µg/mL
MIC [2]: ≤0.03 µg/mL
MIC [3]: ≤0.03 µg/mL
MIC [4]: ≤0.03 µg/mL
MIC [5]: ≤0.03 µg/mL
MIC [6]: ≤0.03 µg/mL
MIC [7]: 0.125 µg/mL (≈ 0.107 µM)
MIC [8]: ≤0.03 µg/mL
